# Laboratory results taken from patent US20110294729A1, “Novel Insulin Analogues” (Novo Nordisk A/S, priority 2008, published 2011).
# Key:
# [1] = according to WO 90/01038; cited from earlier work
# human IR-A = target: T1, human IR-A (Homo sapiens, UniProt P06213); assay: Insulin receptor binding assay (SPA, solubilised receptor), hIR-A; settings: hIR-A affinity relative to human insulin; analogue directly in yeast supernatant; SPA competition with [125I]A14Tyr-labelled insulin
# T1 construct: solubilized human IR (holoreceptor) semipurified by wheat germ agglutinin purification; made in house; host or cells: baby hamster kidney (BHK) cells, stably transfected (pZem vector)
# T1 sequence (P06213 28-746 isoform P06213-2 limits assumed): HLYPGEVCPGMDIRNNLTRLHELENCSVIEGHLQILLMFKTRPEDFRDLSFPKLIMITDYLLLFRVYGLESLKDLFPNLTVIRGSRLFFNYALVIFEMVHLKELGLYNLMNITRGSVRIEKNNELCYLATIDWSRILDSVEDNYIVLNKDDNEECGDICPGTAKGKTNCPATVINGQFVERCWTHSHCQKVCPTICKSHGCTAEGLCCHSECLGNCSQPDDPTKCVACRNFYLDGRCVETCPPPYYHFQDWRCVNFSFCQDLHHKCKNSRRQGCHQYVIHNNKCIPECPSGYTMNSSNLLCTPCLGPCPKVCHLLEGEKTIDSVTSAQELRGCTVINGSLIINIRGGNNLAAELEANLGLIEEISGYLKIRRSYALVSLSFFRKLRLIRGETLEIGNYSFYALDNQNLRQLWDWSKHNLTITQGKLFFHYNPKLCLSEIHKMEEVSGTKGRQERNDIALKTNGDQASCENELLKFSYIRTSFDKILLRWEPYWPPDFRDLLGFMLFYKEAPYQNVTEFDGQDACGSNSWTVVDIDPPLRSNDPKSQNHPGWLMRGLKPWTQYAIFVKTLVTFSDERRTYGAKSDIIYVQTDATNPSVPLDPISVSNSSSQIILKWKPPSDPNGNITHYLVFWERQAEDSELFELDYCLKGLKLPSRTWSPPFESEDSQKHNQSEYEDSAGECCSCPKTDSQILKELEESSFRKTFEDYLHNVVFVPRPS
# T1 sequence (P06213 763-1382 partner limits assumed): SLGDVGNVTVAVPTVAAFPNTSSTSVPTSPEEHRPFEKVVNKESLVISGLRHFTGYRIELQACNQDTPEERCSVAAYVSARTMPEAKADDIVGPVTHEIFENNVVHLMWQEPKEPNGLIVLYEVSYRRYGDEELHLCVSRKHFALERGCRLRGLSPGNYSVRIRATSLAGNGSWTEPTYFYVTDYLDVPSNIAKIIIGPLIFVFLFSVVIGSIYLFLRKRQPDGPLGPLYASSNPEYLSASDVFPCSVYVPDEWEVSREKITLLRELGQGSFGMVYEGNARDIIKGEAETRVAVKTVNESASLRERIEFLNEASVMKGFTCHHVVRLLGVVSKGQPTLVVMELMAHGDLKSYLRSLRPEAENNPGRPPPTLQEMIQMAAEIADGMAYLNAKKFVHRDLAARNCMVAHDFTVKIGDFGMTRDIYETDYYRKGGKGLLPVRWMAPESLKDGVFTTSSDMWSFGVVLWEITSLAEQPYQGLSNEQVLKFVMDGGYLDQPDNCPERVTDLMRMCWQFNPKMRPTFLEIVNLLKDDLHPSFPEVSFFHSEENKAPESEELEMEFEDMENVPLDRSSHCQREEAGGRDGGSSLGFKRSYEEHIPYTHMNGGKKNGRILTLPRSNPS
# Description: (§1) Competition binding experiments were performed in 96-well plates (polystyrene Optiplate-96, PerkinElmer) on an Eppendorf epMotion 5075 robot using solubilized human IR (holoreceptor) semipurified by wheat germ agglutinin purification from baby hamster kidney (BHK) cells, which were stably transfected with the pZem vector containing the human IR-A or IR-B insert.
# human IR-B = target: T2, human IR-B (Homo sapiens, UniProt P06213); assay: Insulin receptor binding assay (SPA, solubilised receptor), hIR-B
# T2 construct: solubilized human IR (holoreceptor) semipurified by wheat germ agglutinin purification; made in house; host or cells: baby hamster kidney (BHK) cells, stably transfected (pZem vector)
# T2 sequence (P06213 28-758 limits assumed): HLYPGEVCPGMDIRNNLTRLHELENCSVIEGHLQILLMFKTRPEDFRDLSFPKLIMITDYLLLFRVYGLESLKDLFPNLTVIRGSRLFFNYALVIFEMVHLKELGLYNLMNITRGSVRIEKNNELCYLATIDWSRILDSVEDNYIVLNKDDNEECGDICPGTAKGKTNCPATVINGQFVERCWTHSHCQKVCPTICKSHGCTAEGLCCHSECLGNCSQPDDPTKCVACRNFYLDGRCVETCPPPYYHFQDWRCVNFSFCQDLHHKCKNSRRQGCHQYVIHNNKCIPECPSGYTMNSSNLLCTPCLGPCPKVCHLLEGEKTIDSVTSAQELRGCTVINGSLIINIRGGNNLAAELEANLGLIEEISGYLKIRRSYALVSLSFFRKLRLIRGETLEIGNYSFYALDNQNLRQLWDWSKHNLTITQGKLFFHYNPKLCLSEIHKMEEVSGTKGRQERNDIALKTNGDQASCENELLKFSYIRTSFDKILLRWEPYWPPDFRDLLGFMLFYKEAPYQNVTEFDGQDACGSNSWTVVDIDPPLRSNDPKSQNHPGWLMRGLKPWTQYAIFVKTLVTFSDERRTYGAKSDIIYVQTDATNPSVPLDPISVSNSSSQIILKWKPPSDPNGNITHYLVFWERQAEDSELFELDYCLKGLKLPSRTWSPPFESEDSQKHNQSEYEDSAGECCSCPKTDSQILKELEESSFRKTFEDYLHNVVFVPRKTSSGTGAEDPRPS
# T2 sequence (P06213 763-1382 partner limits assumed): as the sequence (P06213 763-1382 partner limits assumed) above
# Description: as §1
# [2] = system: insulin receptor A-isoform and B-isoform; settings: cited from earlier work
substance,measurement,setting,value
"His^B25, Asp^B28, desB30 human insulin",biological activity,[1],high biological activity
His^B25 human insulin,biological activity,[1],high biological activity
His^B25 human insulin B30 amide,biological activity,[1],high biological activity
"[A8H, B25H, B27E, desB30] human insulin [Example 4]",hIR-A [% of HI],human IR-A,67 ± 3 % of HI
same,Ratio B/A,"human IR-B; Example 8 table, ratio of relative hIR-B affinity to relative hIR-A affinity",2.1
same,hIR-B [% of HI] (%),"human IR-B; hIR-B affinity relative to human insulin, analogue directly in yeast supernatant, SPA competition with [125I]A14Tyr-labelled insulin",140 ± 5 % of HI
Human insulin,affinity for insulin receptor A-isoform versus B-isoform (in words),"[2]; EMBO Journal 9 (1990), 2409-13",slightly higher affinity for the insulin receptor A-isoform than for the B-isoform
IGF-II,affinity for IR-A versus IR-B,[2]; higher affinity for IR-A than for IR-B,40-50 fold
